Data taken from PubChem BioAssay (NCI).
“And” between values parts separate entries of the source, which are not always exact repeats. Identical values can stand only once.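 Each compound was tested at five concentrations against cells in 96-well plates for 48 hours. GI50 is the concentration that inhibits growth by half. The concentration for full growth arrest is given as TGI.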 Where a SMILES comes first, the peptide text is derived from it. The star is where a group is joined. Cbz = O=C(OCc1ccccc1)*

What was measured:
Experiment in all cases: growth of human tumour cells (NCI), 48 h
K-562 leukemia = tested on: K-562 leukemia
KM12 colon = tested on: KM12 colon
MOLT-4 leukemia = tested on: MOLT-4 leukemia
NCI-H460 lung = tested on: NCI-H460 lung
OVCAR-3 ovarian = tested on: OVCAR-3 ovarian
OVCAR-8 ovarian = tested on: OVCAR-8 ovarian
BT-549 breast = tested on: BT-549 breast
MCF7 breast = tested on: MCF7 breast
MDA-MB-435 = tested on: MDA-MB-435
PC-3 prostate = tested on: PC-3 prostate

Row | Compound | TGI (K-562 leukemia) | TGI (KM12 colon) | TGI (MOLT-4 leukemia) | TGI (NCI-H460 lung) | TGI (OVCAR-3 ovarian) | TGI (OVCAR-8 ovarian) | TGI (BT-549 breast) | TGI (MCF7 breast) | TGI (MDA-MB-435) | TGI (PC-3 prostate) | GI50 (BT-549 breast) | GI50 (K-562 leukemia) | GI50 (KM12 colon) | GI50 (MCF7 breast) | GI50 (MDA-MB-435) | GI50 (MOLT-4 leukemia) | GI50 (NCI-H460 lung) | GI50 (OVCAR-3 ovarian) | GI50 (OVCAR-8 ovarian)
1 | CCOc1cc2c(cc1OC)c[n+](C)c1c3cc(OC)c(OC)cc3ccc21 | > 49 µM | > 100 µM | > 100 µM | > 100 µM | > 100 µM | > 100 µM |  |  |  |  |  |  |  |  |  |  |  |  | 
2 | C[C@]12CCC(=O)C=C1CC[C@@H]1[C@@H]2CC[C@]2(C)C(=O)/C(=C/c3ccc([N+](=O)[O-])cc3)C[C@@H]12 | > 100 µM | > 100 µM | > 100 µM | > 100 µM | > 100 µM | > 100 µM | > 100 µM | 23.5 µM | > 100 µM | > 100 µM |  |  |  |  |  |  |  |  | 
3 | CCOC(=O)CCC(NC(=O)C(CC(=O)OC)NC(=O)OCc1ccccc1)C(=O)NC(CC(=O)OC)C(=O)NC(CCC(=O)OCC)C(=O)NC(CC(=O)OC)C(=O)NC(CCC(=O)OCC)C(=O)NC(CC(=O)OCC)C(=O)OCC (stereo not given) (Cbz-D(OMe)E(OEt)D(OMe)E(OEt)D(OMe)E(OEt)D(OEt)-OEt; configuration not given here) | > 100 µM |  | > 100 µM | > 100 µM | > 100 µM | > 100 µM | > 100 µM | > 100 µM | > 100 µM | > 100 µM |  |  |  |  |  |  |  |  | 
4 | COc1ccc(Nc2nc3ccccc3nc2-c2cccs2)cc1OC | > 10 µM | > 10 µM | > 10 µM | > 10 µM | > 10 µM | > 10 µM |  | > 10 µM | > 10 µM | > 10 µM |  |  |  |  |  |  |  |  | 
5 | Cc1cc2c(cc1Cl)SSc1cc(Cl)c(C)cc1S(=O)(=O)Nc1nc(N)nn1C(O)n1nc(N)nc1NS2(=O)=O | > 10 µM | > 10 µM | > 10 µM | > 10 µM | > 10 µM | > 10 µM | > 10 µM | > 10 µM |  | > 10 µM |  |  |  |  |  |  |  |  | 
6 | CCOC(=O)c1ccc(N2C(=O)/C(=C/c3ccc(N(CCC#N)CCC#N)cc3)N=C2c2cc([N+](=O)[O-])ccc2Cl)cc1 | > 100 µM | > 100 µM | > 100 µM |  | > 100 µM | > 100 µM |  |  |  |  |  |  |  |  |  |  |  |  | 
7 | CCOC(=O)c1nc(SC)sc1NC(=O)c1ccc(OC)cc1 | > 100 µM | > 100 µM | > 100 µM | > 100 µM | > 100 µM | > 100 µM |  | > 100 µM | > 100 µM | > 100 µM |  |  |  |  |  |  |  |  | 
8 | Cc1ccccc1NC(=O)C(=O)C(C1OC(=O)c2ccccc21)[N+](=O)[O-] (stereo not given) | > 100 µM | > 100 µM | > 100 µM | > 100 µM |  | > 100 µM |  |  |  |  |  |  |  |  |  |  |  |  | 
9 | Cc1cc(C)c2c(-c3ccccc3)cc(=O)[nH]c2c1 | > 100 µM | > 100 µM | > 100 µM | > 100 µM | > 100 µM | > 100 µM |  | > 100 µM | > 100 µM | > 100 µM |  |  |  |  |  |  |  |  | 
10 | COc1ccccc1C1C(C#N)=C(N)SC(N)=C1C#N | > 100 µM | > 100 µM | > 100 µM | > 100 µM | > 100 µM | > 100 µM | > 100 µM | > 100 µM | > 100 µM |  | 55.6 µM | 41.8 µM | 37.8 µM | 30.6 µM | 52.8 µM | 45 µM | 49.8 µM | 62.4 µM | 90.4 µM
11 | COC(=O)/C(=C(/C)c1ccco1)P(=O)(OC)OC |  | > 100 µM | > 100 µM |  | > 100 µM | > 100 µM | > 100 µM | > 100 µM | > 100 µM | > 100 µM |  |  |  |  |  |  |  |  | 
12 | NCC(=O)N[C@H]1c2ccsc2/C(=N/O)[C@H]1O | > 100 µM |  | > 100 µM | > 100 µM | > 100 µM | > 100 µM | > 100 µM | > 100 µM | > 100 µM | > 100 µM |  |  |  |  |  |  |  |  | 
13 | Cn1c2ccccc2n2c(=O)c(-c3ccc(Cl)cc3)nnc12 |  | > 100 µM | > 100 µM | > 100 µM |  | > 100 µM | > 100 µM | > 100 µM | > 100 µM |  |  |  |  |  |  |  |  |  | 
14 | c1ccc(C/C(=N\Nc2nc3ccccc3[nH]2)c2ccccn2)cc1 | > 100 µM | 15.4 µM | 6.85 µM | 11.3 µM |  | 2.08 µM | 16.1 µM | 0.607 µM | 11.1 µM | 0.503 µM |  |  |  |  |  |  |  |  | 
15 | COC(=O)C12CCCN1CCC2 | > 100 µM | > 100 µM | > 100 µM | > 100 µM | > 100 µM |  | > 100 µM | > 100 µM | > 100 µM | > 100 µM |  |  |  |  |  |  |  |  | 
16 | CC(C)(C)OC(=O)C1C(=O)NC(=O)CC1C(OCc1ccccc1)C(OCc1ccccc1)C(COCc1ccccc1)OCc1ccccc1 (stereo not given) | > 100 µM | > 100 µM | > 100 µM | > 100 µM |  | > 100 µM | > 100 µM | > 100 µM | > 100 µM | > 100 µM | > 100 µM and 31.7 µM |  | > 100 µM and 24.5 µM | 50 µM and 15.3 µM | > 100 µM and 28.9 µM | 66 µM and 9.83 µM | > 100 µM and 37.3 µM |  | 
17 | CCOC(=O)N1CCC2(CC1)C[C@](Sc1ccccc1)(C(C)=O)[C@H](C)O2 | > 100 µM | > 100 µM | > 100 µM | > 100 µM | > 100 µM | > 100 µM |  | > 100 µM | > 100 µM | > 100 µM |  |  |  |  |  |  |  |  | 
18 | COc1cc2c(c3nc4ccccc4nc13)-c1ccc(SC)c(=O)cc1[C@@H](NC(C)=O)CC2 | > 100 µM | > 100 µM | > 100 µM | > 100 µM | > 100 µM |  |  | > 100 µM | 0.0693 µM | > 100 µM |  |  |  |  |  |  |  |  | 
19 | COC(=O)[C@H](Cc1ccccc1)NC(=O)N(CCN(CCC#N)C(=O)N[C@H](C(=O)OC)C(C)C)c1ccccc1 |  | > 100 µM | > 100 µM |  | > 100 µM | > 100 µM | > 100 µM | > 100 µM | > 100 µM | > 100 µM |  |  |  |  |  |  |  |  | 
20 | COC1CCC(O)C(CO)O1 (stereo not given) | 47.6 µM | > 100 µM | > 100 µM | > 100 µM | > 100 µM | > 100 µM |  |  |  |  |  |  |  |  |  |  |  |  | 
21 | CN(C(=O)Cc1cc(Cl)c(Cl)cc1NC(=O)CCCN)[C@H]1CCCC[C@@H]1N1CCCC1 | > 100 µM | 36.7 µM | > 100 µM |  | > 100 µM | > 100 µM | > 100 µM | 44.2 µM | 31.6 µM | > 100 µM |  |  |  |  |  |  |  |  | 
22 | C/C(=N/NC(=S)N1CCCCCC1)c1cccc(/C(C)=N\NC(=S)N2CCCCCC2)n1 | 6.58 µM | 3.16 µM | 6.34 µM | 6.78 µM | 2.59 µM | 3.11 µM |  | 3.46 µM | 3.36 µM | 5.2 µM |  |  |  |  |  |  |  |  | 
